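Five concentrations, 48 hours, 96-well plates. Here, GI50 denotes the concentration required for 50% inhibition of growth.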 Calls of active or inactive are those of the source. Rule as the data show it: active = GI50 up to about 1.1 µM and inactive = higher.
Assays:
Assay in all cases: growth of human tumour cells (NCI), 48 h
A549 = system: A549
BT-549 = system: BT-549
CCRF-CEM = system: CCRF-CEM
COLO 205 = system: COLO 205
HCC 2998 = system: HCC 2998
HCT-116 = system: HCT-116
HOP-62 = system: HOP-62
LOX IMVI = system: LOX IMVI
MDA-MB-231 = system: MDA-MB-231
MOLT-4 = system: MOLT-4
Malme-3M = system: Malme-3M
NCI/ADR-RES = system: NCI/ADR-RES
SF-539 = system: SF-539
SK-MEL-28 = system: SK-MEL-28
SK-MEL-5 = system: SK-MEL-5
U-251 = system: U-251
UO-31 = system: UO-31
K562 = system: K562
RXF 393 = system: RXF 393
SK-MEL-2 = system: SK-MEL-2

Measured: GI50

N/C(=N\OC(=O)NC(Cl)=C(Cl)Cl)c1cc(C(F)(F)F)cc(C(F)(F)F)c1
inactive: A549 15.3 µM | BT-549 21.8 µM | CCRF-CEM 4.65 µM | COLO 205 15.7 µM | HCC 2998 12.5 µM | HCT-116 18.6 µM | HOP-62 17.9 µM | LOX IMVI 16.3 µM | MDA-MB-231 15.8 µM | MOLT-4 9.48 µM | Malme-3M 23.9 µM | NCI/ADR-RES 19.5 µM | SF-539 16 µM | SK-MEL-28 17.4 µM | SK-MEL-5 26.8 µM | U-251 16 µM | UO-31 18 µM

C[C@H](C(O)CC(=O)C(C)(C)O)[C@H]1CC[C@@]2(C)[C@@H]3CC[C@H]4C(C)(C)[C@@H](OC5OC(COC6OC(CO)C(O)C(O)C6O)C(O)C(O)C5O)CC[C@]4(C)C3=CC[C@]12C (stereo partly drawn)
inactive: A549 > 100 µM | BT-549 > 100 µM | CCRF-CEM > 100 µM | COLO 205 > 100 µM | HCC 2998 > 100 µM | HCT-116 > 100 µM | HOP-62 > 100 µM | K562 > 100 µM | LOX IMVI > 100 µM | MDA-MB-231 > 100 µM | Malme-3M > 100 µM | RXF 393 > 100 µM | SF-539 > 100 µM | SK-MEL-28 > 100 µM | SK-MEL-2 > 100 µM | SK-MEL-5 > 100 µM | U-251 > 100 µM | UO-31 > 100 µM

Cc1c2cccc-2c(N(C)C)cc2c1[nH]c1ccccc12
inactive: A549 3.85 µM | BT-549 2.6 µM | CCRF-CEM 3.83 µM | COLO 205 1.65 µM | HCT-116 3.33 µM | HOP-62 2.71 µM | LOX IMVI 3.94 µM | MDA-MB-231 10.1 µM | MOLT-4 4.35 µM | Malme-3M 3.3 µM | NCI/ADR-RES 3.22 µM | SF-539 2.11 µM | SK-MEL-28 2.02 µM | SK-MEL-5 5.64 µM | U-251 1.93 µM | UO-31 2.53 µM

NC(=O)c1nnc2cc(F)c(F)cc2c1N
inactive: A549 90.2 µM | BT-549 15.7 µM | CCRF-CEM > 100 µM | COLO 205 > 100 µM | HCC 2998 > 100 µM | HCT-116 72.1 µM | HOP-62 18.5 µM | K562 > 100 µM | LOX IMVI 57.3 µM | MDA-MB-231 44.1 µM | MOLT-4 > 100 µM | Malme-3M 29.7 µM | NCI/ADR-RES 27.6 µM | SF-539 36.4 µM | SK-MEL-2 15 µM | SK-MEL-5 87.1 µM | U-251 22.3 µM | UO-31 22.1 µM

Cn1c(=N)n[n+]([O-])c2ccccc21
inactive: A549 7.38 µM | BT-549 1.87 µM | CCRF-CEM 3.01 µM | COLO 205 2.34 µM | HCT-116 3.78 µM | HOP-62 2.45 µM | K562 1.59 µM | LOX IMVI 1.62 µM | MDA-MB-231 9.42 µM | MOLT-4 2.03 µM | SF-539 1.99 µM | SK-MEL-2 2.22 µM | SK-MEL-5 1.83 µM | U-251 12.3 µM | UO-31 3.22 µM

COc1ccccc1C(C1=C(O)COC1=O)c1cc2c(cc1OC(C)=O)OCO2 (stereo not drawn)
inactive: A549 > 100 µM | BT-549 > 100 µM | CCRF-CEM > 100 µM | COLO 205 > 100 µM | HCC 2998 > 100 µM | HCT-116 > 100 µM | HOP-62 > 100 µM | K562 > 100 µM | LOX IMVI > 100 µM | MDA-MB-231 > 100 µM | MOLT-4 > 100 µM | Malme-3M > 100 µM | NCI/ADR-RES > 100 µM | RXF 393 > 100 µM | SF-539 > 100 µM | SK-MEL-28 > 100 µM | SK-MEL-5 > 100 µM | U-251 > 100 µM | UO-31 > 100 µM

C/C=C1\CN2CCC34c5ccccc5N(C)C35OCC4(C(=O)OC)C1CC25 (stereo not drawn)
inactive: A549 61.4 µM | BT-549 34.3 µM | CCRF-CEM 42.7 µM | COLO 205 16 µM | HCC 2998 14 µM | HCT-116 36.6 µM | HOP-62 65.8 µM | K562 48.9 µM | LOX IMVI 14 µM | MDA-MB-231 > 100 µM | MOLT-4 45.7 µM | SF-539 83 µM | SK-MEL-28 27.7 µM | SK-MEL-2 42.2 µM | SK-MEL-5 18.4 µM | U-251 93.3 µM | UO-31 70.6 µM

Cc1ncc([N+](=O)[O-])n1CCN=[N+]=[N-]
inactive: A549 > 100 µM | BT-549 > 100 µM | COLO 205 > 100 µM | HCT-116 > 100 µM | HOP-62 > 100 µM | K562 > 100 µM | MDA-MB-231 > 100 µM | Malme-3M > 100 µM | NCI/ADR-RES > 100 µM | RXF 393 > 100 µM | SF-539 > 100 µM | SK-MEL-28 > 100 µM | SK-MEL-2 > 100 µM | SK-MEL-5 > 100 µM | U-251 > 100 µM | UO-31 > 100 µM

O=C(NNC(=O)c1ccccc1Cl)c1ccccc1O
inactive: A549 56.2 µM | BT-549 > 100 µM | CCRF-CEM 44.1 µM | COLO 205 35.2 µM | HCT-116 35.8 µM | HOP-62 31.8 µM | K562 91 µM | LOX IMVI 38.1 µM | MDA-MB-231 > 100 µM | MOLT-4 57.1 µM | Malme-3M 4.24 µM | NCI/ADR-RES 20.3 µM | RXF 393 > 100 µM | SF-539 > 100 µM | SK-MEL-28 > 100 µM | SK-MEL-2 53.7 µM | SK-MEL-5 > 100 µM | U-251 > 100 µM | UO-31 27.7 µM

C=Cn1c([N+](=O)[O-])cnc1/C=C/c1ccc(C(=O)OCCN2CCOCC2)cc1
inactive: A549 > 100 µM | BT-549 > 100 µM | CCRF-CEM > 100 µM | COLO 205 > 100 µM | HCT-116 > 100 µM | HOP-62 > 100 µM | K562 > 100 µM | LOX IMVI > 100 µM | MDA-MB-231 > 100 µM | MOLT-4 38 µM | Malme-3M 61 µM | NCI/ADR-RES > 100 µM | RXF 393 > 100 µM | SF-539 > 100 µM | SK-MEL-28 > 100 µM | SK-MEL-2 > 100 µM | SK-MEL-5 51.9 µM | U-251 > 100 µM

O=C(O)CN1C(=O)CN=C(c2ccccn2)c2cc(Cl)ccc21
inactive: A549 > 100 µM | BT-549 > 100 µM | COLO 205 > 100 µM | HCT-116 > 100 µM | HOP-62 > 100 µM | K562 > 100 µM | LOX IMVI > 100 µM | MDA-MB-231 > 100 µM | MOLT-4 1.24 µM | Malme-3M > 100 µM | NCI/ADR-RES > 100 µM | RXF 393 > 100 µM | SF-539 > 100 µM | SK-MEL-28 > 100 µM | SK-MEL-2 > 100 µM | SK-MEL-5 > 100 µM | U-251 > 100 µM | UO-31 > 100 µM

[N-]=[N+]=CC(=O)CCC(=O)N(c1ccccc1)c1ccccc1
inactive: A549 > 10 µM | BT-549 > 10 µM | CCRF-CEM > 10 µM | HCT-116 > 10 µM | HOP-62 > 10 µM | K562 > 10 µM | LOX IMVI > 10 µM | MDA-MB-231 > 10 µM | MOLT-4 > 10 µM | Malme-3M > 10 µM | RXF 393 > 10 µM | SF-539 > 10 µM | SK-MEL-28 > 10 µM | SK-MEL-2 6.98 µM | SK-MEL-5 > 10 µM | U-251 > 10 µM | UO-31 > 10 µM

COC(C)C(O)(C(=O)OCC1=CCN2CCC(O)C12)C(C)(C)O (stereo not drawn)
inactive: A549 > 100 µM | BT-549 > 100 µM | CCRF-CEM > 100 µM | COLO 205 > 100 µM | HCC 2998 > 100 µM | HCT-116 > 100 µM | LOX IMVI > 100 µM | MDA-MB-231 > 100 µM | MOLT-4 > 100 µM | Malme-3M > 100 µM | NCI/ADR-RES > 100 µM | SF-539 > 100 µM | SK-MEL-28 > 100 µM | SK-MEL-2 > 100 µM | SK-MEL-5 > 100 µM | U-251 > 100 µM | UO-31 > 100 µM

O=C(O)/C=C(/C(=O)O)C12CCN3CC4=CCOC5CC(=O)NC1C5C4CC32 (stereo not drawn)
inactive: A549 > 100 µM | BT-549 > 100 µM | CCRF-CEM > 100 µM | COLO 205 > 100 µM | HCT-116 > 100 µM | HOP-62 > 100 µM | K562 > 100 µM | LOX IMVI > 100 µM | MDA-MB-231 > 100 µM | MOLT-4 > 100 µM | Malme-3M > 100 µM | NCI/ADR-RES > 100 µM | RXF 393 > 100 µM | SF-539 > 100 µM | SK-MEL-28 > 100 µM | SK-MEL-2 > 100 µM | SK-MEL-5 > 100 µM | U-251 > 100 µM | UO-31 > 100 µM

O=C(CCCN1CCC2(CC1)CC(=O)N(N1CCOCC1)C2=O)c1ccccc1
inactive: A549 > 100 µM | BT-549 14.6 µM | CCRF-CEM > 100 µM | COLO 205 > 100 µM | HCC 2998 > 100 µM | HCT-116 > 100 µM | HOP-62 > 100 µM | K562 > 100 µM | LOX IMVI > 100 µM | MDA-MB-231 > 100 µM | MOLT-4 > 100 µM | Malme-3M > 100 µM | NCI/ADR-RES > 100 µM | RXF 393 > 100 µM | SF-539 > 100 µM | SK-MEL-28 > 100 µM | SK-MEL-5 > 100 µM | U-251 > 100 µM | UO-31 > 100 µM

CC(=O)C(CN1C(=O)c2ccccc2C1=O)C(C)=O
inactive: A549 > 100 µM | BT-549 > 100 µM | COLO 205 > 100 µM | HCC 2998 > 100 µM | HCT-116 > 100 µM | HOP-62 > 100 µM | K562 > 100 µM | MDA-MB-231 > 100 µM | RXF 393 23.1 µM | SF-539 > 100 µM | SK-MEL-28 > 100 µM | SK-MEL-2 > 100 µM | SK-MEL-5 > 100 µM | U-251 > 100 µM | UO-31 > 100 µM

— ChEMBL document CHEMBL1201862, “PubChem BioAssay data set” (2004)
